# In the supplement of paper PMC11451515:
# Assays:
# Assay in all cases: AUC of viability dose-response curve (% viability x log10 dose units); higher = less sensitive
# Conditions in all cases: 48 h
# [1] = tested on: NOMO1
# How it was run: (§1)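 Leukemia cells adapted to each medium (500 or 1000 cells/well, 1536-well plates) were exposed to library compounds in DMSO for 48 h at 37°C at 11 threefold doses, 47 μM to 0.79 nM. Luminescence by CellTiter-Glo One was normalised per plate to DMSO and cell-free wells, then fitted with a four-parameter log-logistic curve on log10 dose. Curves above full viability were scaled and quality-control failures removed before area under the curve was integrated by trapezoidal rule.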
# [2] = tested on: P12-Ichikawa
# How it was run: as §1
# [3] = tested on: SEM cells
# How it was run: as §1
# [4] = RPMI 5 mM glucose + 10% dialyzed FBS
SMILES,AUC of viability dose-response curve ([1]; HPLM + 10% dialyzed FBS),AUC of viability dose-response curve ([1]; RPMI 5 mM glucose + 10% FBS),"AUC of viability dose-response curve [1, 4]",AUC of viability dose-response curve ([2]; HPLM + 10% dialyzed FBS),AUC of viability dose-response curve ([2]; RPMI 5 mM glucose + 10% FBS),"AUC of viability dose-response curve [2, 4]",AUC of viability dose-response curve ([3]; HPLM + 10% dialyzed FBS),AUC of viability dose-response curve ([3]; RPMI 5 mM glucose + 10% FBS),"AUC of viability dose-response curve [3, 4]"
CC[P](CC)(CC)=[Au][S][C@@H]1O[C@H](COC(C)=O)[C@@H](OC(C)=O)[C@H](OC(C)=O)[C@H]1OC(C)=O,357,344,354,375,339,331,327,336,315
Cc1nc(N)sc1-c1ccnc(Nc2ccc(N3CCOCC3)cc2)n1,447,447,432,389,392,399,382,368,359
O=C(O)CCCc1ccc(N(CCCl)CCCl)cc1,468,464,465,455,456,462,458,451,458
NC(=O)[C@@H](CCC(F)(F)F)N(Cc1ccc(-c2ncon2)cc1F)[S+](=O)([O-])c1ccc(Cl)cc1,436,413,426,430,421,403,430,381,385
O=C(Nc1ccncc1)C(=O)c1cn(Cc2ccc(Cl)cc2)c2ccccc12,306,315,311,281,275,288,249,237,247
CC/C(=C(\c1ccccc1)c1ccc(OCCN(C)C)cc1)c1ccccc1,457,458,450,472,461,465,434,425,435
Clc1ccc(C(Cn2ccnc2)OCc2ccsc2Cl)c(Cl)c1 (centres undefined),470,476,457,467,461,464,456,467,463
CC(=O)OCC(CCn1cnc2cnc(N)nc21)COC(C)=O,454,464,462,470,470,465,445,434,440
NC(=O)Cc1cccc(C(=O)c2ccccc2)c1N,461,435,436,468,456,455,433,404,428
c1cc(N[C@@H]2CCNC2)nc(-c2cnc3ccc(-c4cn[nH]c4)cn23)c1,460,467,436,471,457,437,386,399,367
O=C(N[C@H]1CN2CCC1CC2)c1ccc(Cl)cc1,462,470,469,467,469,466,457,439,468
O=C(/C=C/c1cccnc1)NCCCCC1CCN(C(=O)c2ccccc2)CC1,102,125,113,81,93.4,98,,,
O=C1C(CCC(O)c2ccc(F)cc2)C(c2ccc(O)cc2)N1c1ccc(F)cc1 (centres undefined),461,435,469,472,472,465,477,470,466
NC(=O)c1c(OCc2c(F)cc(Br)cc2F)nsc1NC(=O)NCCCCN1CCCC1,370,450,421,430,445,436,415,397,435
CC(C)(OCc1nn(Cc2ccccc2)c2ccccc12)C(=O)O,460,442,467,473,459,427,475,471,477
COc1ccccc1OCC(O)CN1CCN(CC(=O)Nc2c(C)cccc2C)CC1 (centres undefined),460,453,465,467,469,468,433,471,469
CCCCc1ccc(N[S+](=O)([O-])c2ccc(C)c(C(=O)N3CCN(c4cccc(C)c4C)CC3)c2)cc1,457,435,473,468,468,464,,,
Cc1nc(C(=O)NCC(=O)O)c(O)c2ccc(Oc3ccccc3)cc12,462,442,466,454,455,466,459,454,470
CC(C)C[C@@H](C(=O)N[C@H](C(=O)OC1CCCC1)c1ccccc1)[C@H](O)C(=O)NO,451,449,446,446,424,441,454,423,399
CO[C@H]1C[C@H]2OC[C@@]2(OC(C)=O)[C@H]3[C@H](OC(=O)C4=CC=CC=C4)[C@]5(O)C[C@H](OC(=O)[C@H](O)[C@@H](NC(=O)OC(C)(C)C)C6=CC=CC=C6)/C(=C(/[C@@H](OC)C(=O)[C@]13C)C5(C)C)C,125,135,143,135,142,171,,,
O=C(O)CCc1ccc(NCc2cccc(Oc3ccccc3)c2)cc1,446,441,444,464,449,471,406,439,413
Cc1ccc(C)c(OCCCC(C)(C)C(=O)O)c1,457,449,447,458,429,413,442,456,453
